Measurements taken from patent US6737383B1, “Herbicidal oxadiazolidines” (priority 1999, dated 2004).

Key:
[1] = system: bedstraw; assay: Test B pre/postemergence bedstraw; format: in vivo, Galium aparine
Method in brief: (§1)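 Response is a visual 0-to-10 score relative to untreated plants, where 0 means no effect and 10 means complete control, taken twelve to sixteen days after application. Treatments went onto soil at planting and onto foliage of 1- to 4-leaf plants, using a surfactant-containing non-phytotoxic solvent.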

[2] = system: pigweed; assay: Test B pre/postemergence pigweed; format: in vivo, Amaranthus retroflexus
Method in brief: as §1

[3] = system: rice; assay: Test B flood test rice; format: in vivo, Oryza sativa
Method in brief: (§2)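 Flood test on plants grown to the 2-leaf stage; treated plants kept in greenhouse twelve to sixteen days, then visually rated against controls on a 0 (no effect) to 10 (complete control) scale.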

[4] = system: bamyardgrass; assay: Test B flood test barnyardgrass; format: in vivo, Echinochloa crus-galli
Method in brief: as §2

[5] = system: common groundsel; assay: Test D common groundsel; format: in vivo, Senecio vulgaris; conditions: Preemergence, 0 to 100 scale
Method in brief: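 Greenhouse pots, sandy loam, single species per pot. Preemergence tests: soil-surface application ≤1 day after planting. Compound formulated in non-phytotoxic solvent with surfactant. Visual rating 14–21 DAT, scale 0–100.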

[6] = system: purple nutsedge; assay: Test D purple nutsedge; format: in vivo, Cyperus rotundus; conditions: Preemergence, 0 to 100 scale
Source text: Seeds, tubers, or plant parts of Alexandergrass (Brachiaria plantaginea), bermuda-grass (Cynodon dactylon), common pursiane (Portulaca oleracea), common ragweed (Ambrosia elatior), common groundsel (Senecio vulgaris), dallisgrass (Paspalum dilatatum), goosegrass (Eleusine indica), guineagrass (Panicum maximum), itchgrass (Rottboellia exaltata), Johnson grass (Sorghum halepense), large crabgrass (Digitaria sanguinalis), pitted morningglory (Ipomoea lacunosa), purple nutsedge (Cyperus rotundus), sandbur (Cenchrus echinatus), sourgrass (Trichachne insularis), Spanishneedles (Bidens bipinnata), surinam grass (Brachiaria decumbens) and tall mallow (Malva sylvestris) were planted into greenhouse pots of flats containing greenhouse planting medium. Plant species were grown in separate pots or individual compartments. Preemergence applications were made within one day of planting the seed or plant part.
Test chemicals were formulated in a non-phytotoxic solvent mixture which included a surfactant and applied preemergence to the surface of the pot containing seeds in a sandy loam soil. Untreated control pots and treated pots were placed in the greenhouse for growth and visually evaluated for injury 14 to 21 days after herbicide application. Plant response ratings, summarized in Table C, are based on a 0 to 100 scale where 0 is no injury and 100 is complete control. A dash (−) response means no test result.

[7] = system: winter wheat; assay: Test E winter wheat; format: in vivo, Triticum aestivum; conditions: Postemergence, 0 to 100 scale
Method in brief: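 Each compound, carried in a non-phytotoxic solvent blend including surfactant, was applied (postemergence: over the top of young plants at 1- to 4-leaf stage). Plants stayed in the greenhouse about 21 to 28 days before visual comparison with untreated controls.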

[8] = system: blackgrass; assay: Test E blackgrass; format: in vivo, Alopecurus myosuroides; conditions: Preemergence
[9] = system: green foxtail; assay: Test E green foxtail; format: in vivo, Setaria viridis; conditions: Preemergence
[10] = system: Italian ryegrass; assay: Test E Italian ryegrass; format: in vivo, Lolium multiflorum; conditions: Preemergence
[11] = system: winter wheat; assay: Test E winter wheat; format: in vivo, Triticum aestivum; conditions: Preemergence
[12] = system: wild oat; assay: Test E wild oat; format: in vivo, Avena fatua; conditions: Preemergence
[13] = system: winter barley; assay: Test E winter barley; format: in vivo, Hordeum vulgare; conditions: Preemergence
[14] = Postemergence, Rate 62 g/ha, scale 0 to 10, 0 is no effect, 10 is complete control
[15] = Preemergence, Rate 62 g/ha, scale 0 to 10, 0 is no effect, 10 is complete control
[16] = Preemergence, Rate 125 g/ha, scale 0 to 10 (0 no effect, 10 complete control)
[17] = Preemergence, Rate 500 g/ha, scale 0 (no effect) to 10 (complete control)
[18] = Postemergence, Rate 250 g/ha, scale 0 to 10, 0 no effect, 10 complete control
[19] = Preemergence, Rate 250 g/ha, scale of 0 to 10 where 0 is no effect and 10 is complete control
[20] = Rate 125 g/ha, Postemergence, scale 0 to 10, 0 no effect, 10 complete control
[21] = Rate 500 g/ha, Postemergence, 0 to 10 scale (0 no effect, 10 complete control)
[22] = Rate 125 g/ha, Postemergence section (flood test species), scale 0 to 10, 0 no effect, 10 complete control
[23] = Rate 250 g/ha, headed Pre-emergence (flood test species), scale 0 to 10 (0 no effect, 10 complete control)
[24] = Rate 500 g/ha, Postemergence section of Table B, 0 to 10 scale (0 no effect, 10 complete control)
[25] = Rate 500 g/ha, headed Pre-emergence (flood test species), scale 0 to 10 (0 no effect, 10 complete control)
[26] = Rate 1000 g/ha, Pre-emergence (as headed), scale 0 to 10
[27] = Rate 2000 g/ha, Pre-emergence (as headed), scale 0 to 10
[28] = flood test, listed under Postemergence, Rate 250 g/ha, scale 0 to 10, 0 no effect, 10 complete control
[29] = Rate 2000 g/ha, Pre-emergence (as headed), scale 0 to 10, 0 no effect, 10 complete control
[30] = Rate 32 g/ha, 0 no injury, 100 complete control
[31] = Rate 64 g/ha, 0 no injury, 100 complete control
[32] = Rate 125 g/ha, 0 no injury, 100 complete control
[33] = Postemergence, Rate 125 g/ha, scale of 0 to 10 where 0 is no effect and 10 is complete control
[34] = Preemergence, Rate 62 g/ha, scale of 0 to 10 where 0 is no effect and 10 is complete control
[35] = Preemergence, Rate 125 g/ha, 0 is no effect, 10 is complete control
[36] = Preemergence, Rate 250 g/ha, scale 0 to 10, 0 is no effect, 10 is complete control
[37] = Preemergence, Rate 500 g/ha, scale 0 to 10 (0 no effect, 10 complete control)
[38] = Rate 62 g/ha, Postemergence, scale of 0 to 10 where 0 is no effect and 10 is complete control
[39] = Rate 250 g/ha, Postemergence, scale 0 to 10, 0 is no effect, 10 is complete control
[40] = Rate 500 g/ha, Postemergence, scale 0 to 10
[41] = Rate 1000 g/ha, Preemergence, scale 0 to 10 (0 no effect, 10 complete control)
[42] = Rate 2000 g/ha, Preemergence, scale 0 to 10
[43] = Postemergence (flood test species), Rate 125 g/ha, scale of 0 to 10 where 0 is no effect and 10 is complete control
[44] = Rate 62 g/ha, Postemergence section, flood test species, scale of 0 to 10 where 0 is no effect and 10 is complete control
[45] = Rate 250 g/ha, Postemergence (flood test), scale 0 to 10, 0 is no effect, 10 is complete control
[46] = Rate 250 g/ha, Pre-emergence, flood-test species, scale 0 to 10, 0 is no effect, 10 is complete control
[47] = Rate 500 g/ha, listed under Postemergence (flood test species), scale 0 to 10
[48] = Rate 2000 g/ha, 0 to 100 scale, 0 is no effect and 100 is complete control
[49] = Rate 500 g/ha, 0 to 100 scale where 0 is no effect and 100 is complete control
[50] = Rate 1000 g/ha, 0 to 100 scale where 0 is no effect and 100 is complete control

Structure (SMILES): Cc1ccccc1-n1c(=O)on(C(=O)N(c2ccccc2)C(C)C)c1=O [Compound 36]
- Bedstraw plant response rating [1, 14]: 0
- Plant response rating, Bedstraw [1, 15]: 0
- Plant response rating, Bedstraw [1, 16]: 0
- Bedstraw plant response rating [1, 17]: 0
- Redroot pigweed plant response rating [2, 14]: 2
- Redroot pigweed plant response rating [2, 18]: 7
- Plant response rating, Redroot pigweed [2, 15]: 0
- Plant response rating, Redroot pigweed [2, 16]: 0
- Plant response rating, Redroot pigweed [2, 19]: 6
- Redroot pigweed plant response rating [2, 17]: 7
- Redroot pigweed plant response rating [2, 20]: 5
- Redroot pigweed plant response rating [2, 21]: 7
- Rice plant response rating [3, 14]: 0
- Rice plant response rating [3, 22]: 0
- Rice plant response rating [3, 23]: 0
- Rice plant response rating [3, 24]: 2
- Plant response rating, Rice [3, 25]: 0
- Rice plant response rating [3, 26]: 0
- Rice plant response rating [3, 27]: 0
- Rice plant response rating [3, 28]: 0
- Barnyardgrass plant response rating [4, 14]: 0
- Barnyardgrass plant response rating [4, 22]: 0
- Barnyardgrass plant response rating [4, 23]: 0
- Barnyardgrass plant response rating [4, 24]: 5
- Plant response rating, Barnyardgrass [4, 25]: 0
- Barnyardgrass plant response rating [4, 26]: 0
- Barnyardgrass plant response rating [4, 29]: 0
- Barnyardgrass plant response rating [4, 28]: 2
- Plant response rating, Com. groundsel ([5]; Rate 500 g/ha): 100
- Plant response rating, Purple nutsedge ([6]; Rate 500 g/ha): 0

Structure (SMILES): CCc1ccccc1-n1c(=O)on(C(=O)N(c2ccc(F)cc2)C(C)C)c1=O [Compound 34]
- Bedstraw plant response rating [1, 14]: 4
- Bedstraw plant response rating [1, 18]: 6
- Plant response rating, Bedstraw [1, 15]: 0
- Plant response rating, Bedstraw [1, 16]: 0
- Plant response rating, Bedstraw [1, 19]: 0
- Bedstraw plant response rating [1, 17]: 0
- Bedstraw plant response rating [1, 20]: 4
- Bedstraw plant response rating [1, 21]: 7
- Redroot pigweed plant response rating [2, 14]: 0
- Redroot pigweed plant response rating [2, 18]: 6
- Plant response rating, Redroot pigweed [2, 15]: 0
- Plant response rating, Redroot pigweed [2, 16]: 2
- Plant response rating, Redroot pigweed [2, 19]: 6
- Redroot pigweed plant response rating [2, 17]: 6
- Redroot pigweed plant response rating [2, 20]: 0
- Redroot pigweed plant response rating [2, 21]: 7
- Rice plant response rating [3, 14]: 0
- Rice plant response rating [3, 22]: 0
- Rice plant response rating [3, 24]: 0
- Rice plant response rating [3, 28]: 0
- Barnyardgrass plant response rating [4, 14]: 0
- Barnyardgrass plant response rating [4, 22]: 0
- Barnyardgrass plant response rating [4, 24]: 0
- Barnyardgrass plant response rating [4, 28]: 0
- Plant response rating, Com. groundsel [5, 30]: 0
- Plant response rating, Com. groundsel [5, 31]: 0
- Plant response rating, Com. groundsel [5, 32]: 0
- Plant response rating, Com. groundsel ([5]; Rate 250 g/ha): 0
- Plant response rating, Purple nutsedge [6, 30]: 0
- Purple nutsedge plant response rating [6, 31]: 0
- Purple nutsedge plant response rating [6, 32]: 0
- Plant response rating, Purple nutsedge ([6]; Rate 250 g/ha): 0

Structure (SMILES): CC(C)N(C(=O)n1oc(=O)n(N(C)c2ccccc2)c1=O)c1ccc(F)cc1 [Compound 177]
- Bedstraw plant response rating [1, 33]: 0
- Bedstraw plant response rating [1, 34]: 0
- Bedstraw plant response rating (0 to 10 scale) [1, 35]: 0
- Bedstraw plant response rating [1, 36]: 9
- Bedstraw plant response rating [1, 37]: 10
- Bedstraw plant response rating [1, 38]: 0
- Plant response rating, Bedstraw [1, 39]: 5
- Bedstraw plant response rating [1, 40]: 6
- Plant response rating, Bedstraw [1, 41]: 10
- Bedstraw plant response rating [1, 42]: 10
- Redroot pigweed plant response rating [2, 33]: 0
- Redroot pigweed plant response rating ([2]; Postemergence, Rate 1000 g/ha, scale 0 to 10 (0 no effect, 10 complete control)): 2
- Redroot pigweed plant response rating [2, 34]: 0
- Redroot pigweed plant response rating (0 to 10 scale) [2, 35]: 0
- Redroot pigweed plant response rating [2, 36]: 0
- Redroot pigweed plant response rating [2, 37]: 0
- Redroot pigweed plant response rating [2, 38]: 0
- Plant response rating, Redroot pigweed [2, 39]: 0
- Redroot pigweed plant response rating [2, 40]: 3
- Plant response rating, Redroot pigweed [2, 41]: 0
- Redroot pigweed plant response rating ([2]; Rate 2000 g/ha, Postemergence, scale 0 to 10): 3
- Redroot pigweed plant response rating [2, 42]: 0
- Rice plant response rating [3, 43]: 0
- Rice plant response rating [3, 44]: 0
- Plant response rating, Rice [3, 45]: 0
- Rice plant response rating [3, 46]: 0
- Plant response rating, Rice [3, 25]: 0
- Rice plant response rating [3, 47]: 0
- Rice plant response rating [3, 26]: 0
- Rice plant response rating [3, 27]: 0
- Barnyardgrass plant response rating [4, 43]: 0
- Barnyardgrass plant response rating [4, 44]: 0
- Plant response rating, Barnyardgrass [4, 45]: 0
- Barnyardgrass plant response rating [4, 46]: 0
- Plant response rating, Barnyardgrass [4, 25]: 0
- Barnyardgrass plant response rating [4, 47]: 0
- Barnyardgrass plant response rating [4, 26]: 0
- Barnyardgrass plant response rating [4, 29]: 0
- Plant response rating, Wheat (winter) ([7]; Rate 1000 g/ha, 0 is no effect and 100 is complete control): 65
- Plant response rating, Wheat (winter) ([7]; Rate 2000 g/ha, 0 is no effect and 100 is complete control): 70
- Plant response rating, Wheat (winter) ([7]; Rate 500 g/ha, 0 is no effect, 100 is complete control): 70
- Plant response rating, Blackgrass [8, 48]: 60
- Plant response rating, Blackgrass [8, 49]: 60
- Plant response rating, Blackgrass [8, 50]: 60
- Plant response rating, Green foxtail [9, 48]: 100
- Plant response rating, Green foxtail [9, 49]: 60
- Plant response rating, Green foxtail [9, 50]: 85
- Plant response rating, I. Ryegrass [10, 48]: 65
- Plant response rating, I. Ryegrass [10, 49]: 60
- Plant response rating, I. Ryegrass [10, 50]: 60
- Plant response rating, Wheat (winter) [11, 48]: 70
- Plant response rating, Wheat (winter) [11, 49]: 70
- Plant response rating, Wheat (winter) [11, 50]: 50
- Plant response rating, Wild oat [12, 48]: 70
- Plant response rating, Wild oat [12, 49]: 80
- Plant response rating, Wild oat [12, 50]: 80
- Plant response rating, Barley (winter) [13, 48]: 80
- Plant response rating, Barley (winter) [13, 49]: 60
- Plant response rating, Barley (winter) [13, 50]: 70
